Measurements taken from publication PMC2749132 (The Journal of Biological Chemistry, 2009).

Molecular target: T1, MBP-MtHPS (MtHPS, HPS, halimadienyl-diphosphate synthase, Rv3377c) (Mycobacterium tuberculosis, UniProt O50406)
T1 sequence (O50406 1-501): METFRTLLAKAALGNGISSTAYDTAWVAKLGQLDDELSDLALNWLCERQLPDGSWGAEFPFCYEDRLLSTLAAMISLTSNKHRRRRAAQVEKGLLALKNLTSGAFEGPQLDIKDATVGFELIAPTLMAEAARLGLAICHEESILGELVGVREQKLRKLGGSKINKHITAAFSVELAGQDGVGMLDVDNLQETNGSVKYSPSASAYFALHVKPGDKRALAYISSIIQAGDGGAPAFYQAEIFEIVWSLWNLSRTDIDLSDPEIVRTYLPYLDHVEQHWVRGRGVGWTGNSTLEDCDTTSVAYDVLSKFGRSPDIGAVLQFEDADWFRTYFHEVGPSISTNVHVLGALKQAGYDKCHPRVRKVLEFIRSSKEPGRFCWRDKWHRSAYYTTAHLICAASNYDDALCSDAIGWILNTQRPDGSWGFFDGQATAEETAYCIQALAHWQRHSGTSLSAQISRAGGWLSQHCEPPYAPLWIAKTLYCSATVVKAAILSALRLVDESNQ
Assay: GC-FID conversion of GGPP to HPP, substrate inhibition equation
Type: biochemical
Settings: 0.1 mM Mg2+, pH 7.75, 25 nM enzyme, 1 min

CC(C)=CCC/C(C)=C/CC/C(C)=C/CC/C(C)=C/COP(=O)(O)OP(=O)(O)O [1a, GGPP]
Ki: 18 ± 6 µM
